Where two headings read alike, the source gives them in different places.
Experiments:
[1] = target: T1, LXRβ ligand-binding domain (Homo sapiens, UniProt P55055, DUP175-175); assay: TR-FRETβ activity assay (NCoA3 coactivator peptide recruitment); format: biochemical
T1 construct: amino acids 156-461; NP009052; made in house; host or cells: E. coli
T1 sequence (P55055 with tags, fused parts or gaps DUP175-175 limits assumed): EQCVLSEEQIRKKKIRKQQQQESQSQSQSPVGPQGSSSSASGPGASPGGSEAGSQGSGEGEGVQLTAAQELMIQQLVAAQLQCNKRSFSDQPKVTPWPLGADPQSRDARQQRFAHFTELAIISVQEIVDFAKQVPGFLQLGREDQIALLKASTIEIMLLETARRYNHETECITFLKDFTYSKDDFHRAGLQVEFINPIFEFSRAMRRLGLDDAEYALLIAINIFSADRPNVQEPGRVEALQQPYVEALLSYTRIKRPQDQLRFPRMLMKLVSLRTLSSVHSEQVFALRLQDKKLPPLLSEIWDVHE
How it was run: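 Inverse agonism assessed by loss of coactivator recruitment, read as TR-FRET 665/615 nm after 1 h equilibration at 4 °C, in triplicate. Ten-point titration from 50 μM to 0.002 μM against LXRβ LBD (76 nM, GST fusion) prestimulated with 1 μM 24(S)-25-epoxycholesterol, with 400 nM NCoA3 peptide, pH 6.8. Sulfonyl acetic acids kept as 20 mM DMSO stocks with 100 mM TFA.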

full length (FL) LXRα = target: T2, full length (FL) LXRα (Homo sapiens, UniProt Q13133); assay: LXR Gal4 reporter transient transfection assay (FL-M2H Gal4α); format: cell-based; details: HEK293 cells
T2 construct: the full length (FL) proteins of LXRα (amino acids 1-447); NP005684; expressed in transfected cells; host or cells: HEK293
T2 sequence (Q13133 1-447): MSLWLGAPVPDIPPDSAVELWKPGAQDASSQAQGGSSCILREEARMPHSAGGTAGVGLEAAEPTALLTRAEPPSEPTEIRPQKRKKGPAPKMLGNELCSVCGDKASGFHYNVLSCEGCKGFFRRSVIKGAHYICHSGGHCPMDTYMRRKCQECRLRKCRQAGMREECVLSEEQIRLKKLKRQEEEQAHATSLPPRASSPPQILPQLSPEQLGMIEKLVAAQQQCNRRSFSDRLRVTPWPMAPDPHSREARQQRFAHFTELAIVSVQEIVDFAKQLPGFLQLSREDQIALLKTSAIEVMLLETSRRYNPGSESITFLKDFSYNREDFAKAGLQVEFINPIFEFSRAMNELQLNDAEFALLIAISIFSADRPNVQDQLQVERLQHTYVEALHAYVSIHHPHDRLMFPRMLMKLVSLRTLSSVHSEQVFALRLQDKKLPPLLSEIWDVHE
Experimental: The tested compounds were usually dissolved, tested and stored as 20 mM stock solutions in DMSO. Since sulfonyl acetic acid derivatives tend to decarboxylate under these conditions, these stock solutions were prepared, tested and stored as 20 mM DMSO stock solutions containing 100 mM trifluoroacetic Acid (5 equivalents). Sulfonyl acetic acid derivatives are shelf stable as solid at rt for long time as reported by Griesbrecht et al. (Synlett 2010:374) or Faucher et al. (J. Med. Chem. 2004; 47:18).
LXR Gal4 Reporter Transient Transfection Assays
LXRα and LXRβ activity status was determined via detection of interaction with coactivator and corepressor proteins in mammalian two-hybrid experiments (M2H). For this, via transient transfection the full length (FL) proteins of LXRα (amino acids 1-447; NP005684; SEQ ID NO:1) or LXRβ-(amino acids 1-461; NP009052; SEQ ID NO:2) or the ligand-binding domains (LBD) of LXRα (amino acids 155-447 SEQ ID NO:3) or LXRβ (amino acids 156-461; SEQ ID NO:4) were expressed from pCMV-AD (Stratagene) as fusions to the transcriptional activation domain of NFkB. As cofactors, domains of either the steroid receptor coactivator 1 (SRC1; amino acids 552-887; SEQ ID NO:5) or of the corepressor NCoR (amino acids 1906-2312; NP006302; SEQ ID NO:6) were expressed as fusions to the DNA binding domain of the yeast transcription factor GAL4 (from pCMV-BD; Stratagene). Interaction was monitored via activation of a coexpressed Firefly Luciferase Reporter gene under control of a promoter containing repetitive GAL4 response elements (vector pFRLuc; Stratagene). Transfection efficiency was controlled via cotransfection of constitutively active pRL-CMV Renila reniformis luciferase reporter (Promega). HEK293 cells were grown in minimum essential medium (MEM) with 2 mM L-glutamine and Earle's balanced salt solution supplemented with 8.3% fetal bovine serum, 0.1 mM non-essential amino acids, 1 mM sodium pyruvate, at 37° C. in 5% CO2. 3.5×10^4 cells/well were plated in 96-well cell culture plates in growth medium supplemented with 8.3% fetal bovine serum for 16-20 h to ˜90% confluency. For transfection, medium was taken off and LXR and cofactor expressing plasmids as well as the reporter plasmids are added in 30 μL OPTIMEM/well including polyethylene-imine (PEI) as vehicle. Typical amounts of plasmids transfected/well: pCMV-AD-LXR (5 ng), pCMV-BD-cofactor (5 ng), pFR-Luc (100 ng), pRL-CMV (0.5 ng). Compound stocks were prepared in DMSO, prediluted in MEM to a total volume of 120 μL, and added 4 h after addition of the transfection mixture (final vehicle concentration not exceeding 0.2%). Cells were incubated for additional 16 h, lysed for 10 min in 1× Passive Lysis Buffer (Promega) and Firefly and Renilla luciferase activities were measured sequentially in the same cell extract using buffers containing D-luciferine and coelenterazine, respectively. Measurements of luminescence were done in a BMG-luminometer.

full length (FL) LXRβ = target: T3, full length (FL) LXRβ (Homo sapiens, UniProt P55055, DUP175-175); assay: LXR Gal4 reporter transient transfection assay (FL-M2H Gal4β); format: cell-based; details: HEK293 cells
T3 construct: the full length (FL) proteins of LXRα (amino acids 1-447); NP005684; NP009052; expressed in transfected cells; host or cells: HEK293
T3 sequence (P55055 with tags, fused parts or gaps DUP175-175): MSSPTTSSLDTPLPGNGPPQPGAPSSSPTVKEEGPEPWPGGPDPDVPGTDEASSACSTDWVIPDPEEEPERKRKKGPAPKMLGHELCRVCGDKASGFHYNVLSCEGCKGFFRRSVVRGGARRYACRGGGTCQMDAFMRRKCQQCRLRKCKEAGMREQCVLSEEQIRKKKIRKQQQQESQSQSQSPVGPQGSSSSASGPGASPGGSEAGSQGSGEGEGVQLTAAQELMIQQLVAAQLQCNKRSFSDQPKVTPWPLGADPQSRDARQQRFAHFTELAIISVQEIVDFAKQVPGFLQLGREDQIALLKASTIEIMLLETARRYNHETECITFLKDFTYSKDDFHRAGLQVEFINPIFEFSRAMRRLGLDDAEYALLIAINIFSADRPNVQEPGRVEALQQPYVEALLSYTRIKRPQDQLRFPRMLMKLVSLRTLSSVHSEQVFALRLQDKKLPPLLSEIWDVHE
How it was run: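 Mammalian two-hybrid in HEK293: AD-LXR (FL or LBD) + BD-cofactor (SRC1 coactivator or NCoR corepressor domain), pFR-Luc reporter, pRL-CMV normaliser; PEI transfection. Compound added 4 h later (DMSO ≤0.2% final), 16 h incubation at 37 °C. Firefly/Renilla luminescence measured sequentially in lysate.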

[2] = TR-FRET, 1 μM 24(S)-25-epoxycholesterol prestimulation, read-out: FRETβ (EC50 range)
[3] = full length LXRα, read-out: FL-M2H Gal4α (EC50 range)
[4] = full length LXRβ, read-out: FL-M2H Gal4β (EC50 range)

CN1CC(F)(c2ccccc2-c2c(-c3cccc(-c4ccc(C(=O)O)cc4Cl)c3)n(S(=O)(=O)c3ccc(C(F)F)cc3)c3ccc(F)cc23)C1 [3/62]
EC50 [1, 2]: 100 to 1000 nM
EC50 (full length (FL) LXRα; [3]): 100 to 1000 nM
EC50 (full length (FL) LXRβ; [4]): < 100 nM

N#Cc1cccc(C#N)c1-c1c(-c2cccc(-c3ccc(C(=O)O)cc3Cl)c2)n(S(=O)(=O)c2ccc(C(F)F)cc2)c2ccccc12 [11/56]
EC50 [1, 2]: < 100 nM
EC50 (full length (FL) LXRα; [3]): < 100 nM
EC50 (full length (FL) LXRβ; [4]): < 100 nM

N#Cc1sccc1-c1c(-c2cccc(-c3ccc(C(=O)O)cc3Cl)c2)n(S(=O)(=O)c2ccc(C(F)F)nc2)c2ccc(F)cc12 [11/57]
EC50 [1, 2]: < 100 nM
EC50 (full length (FL) LXRα; [3]): < 100 nM
EC50 (full length (FL) LXRβ; [4]): < 100 nM

[2H]c1c([2H])c(S(=O)(=O)n2c(-c3cccc(-c4ccc(C(=O)O)cc4Cl)c3)c(-c3ccsc3C#N)c3cc(F)ccc32)c([2H])c([2H])c1C([2H])([2H])[2H] [3/22]
EC50 [1, 2]: < 100 nM
EC50 (full length (FL) LXRα; [3]): < 100 nM
EC50 (full length (FL) LXRβ; [4]): < 100 nM

Cc1ccc(S(=O)(=O)n2c(-c3cccc(C45CC(C(=O)O)(C4)C5)c3)c(-c3ccsc3C#N)c3ccccc32)cc1 [5/2]
EC50 [1, 2]: 100 to 1000 nM
EC50 (full length (FL) LXRα; [3]): 100 to 1000 nM
EC50 (full length (FL) LXRβ; [4]): 100 to 1000 nM

N#Cc1cccc(C#N)c1-c1c(-c2cccc(Br)c2)n(S(=O)(=O)c2ccc(C(F)F)cc2)c2ccc(F)cc12 [1/139]
EC50 [1, 2]: 100 to 1000 nM
EC50 (full length (FL) LXRα; [3]): < 100 nM
EC50 (full length (FL) LXRβ; [4]): < 100 nM

N#Cc1cc(C(=O)O)ccc1-c1cccc(-c2c(-c3ccccc3C#N)c3cc(F)ccc3n2S(=O)(=O)c2ccc(C(F)F)cc2)c1 [11/30]
EC50 [1, 2]: < 100 nM
EC50 (full length (FL) LXRα; [3]): < 100 nM
EC50 (full length (FL) LXRβ; [4]): < 100 nM

Cc1ccc(S(=O)(=O)n2c(-c3cc(N4CC(C(=O)O)C4)ccc3Cl)c(-c3ccsc3C#N)c3cc(F)ccc32)cc1 [3/40]
EC50 [1, 2]: 1000 to 10000 nM
EC50 (full length (FL) LXRα; [3]): 100 to 1000 nM
EC50 (full length (FL) LXRβ; [4]): < 100 nM

COc1cc(-c2cccc(-c3c(-c4ccsc4C#N)c4cc(F)ccc4n3S(=O)(=O)c3ccc(C)cc3)c2)c(Cl)cc1C(=O)O [12/4]
EC50 [1, 2]: 100 to 1000 nM
EC50 (full length (FL) LXRα; [3]): < 100 nM
EC50 (full length (FL) LXRβ; [4]): < 100 nM

N#Cc1cccc(-c2c(-c3cccc(-c4ccc(C(=O)O)cc4Cl)c3)n(S(=O)(=O)c3ccc(C(F)F)cc3)c3ccc(F)cc23)c1 [C11/48, reference compound]
FRETβ efficacy (value in brackets) ([1]; 1 μM 24(S)-25-epoxycholesterol as prestimulating agonist): −96%
EC50 ([1]; 1 μM 24(S)-25-epoxycholesterol as prestimulating agonist, read-out: FRETβ potency): 49 nM
EC50 [1, 2]: < 100 nM
FL-M2H Gal4α efficacy (value in brackets) (full length (FL) LXRα): 118%
EC50 (full length (FL) LXRα; read-out: FL-M2H Gal4α potency): 62 nM
FL-M2H Gal4β efficacy (value in brackets) (full length (FL) LXRβ): 123%
EC50 (full length (FL) LXRβ; [4]): < 100 nM
EC50 (full length (FL) LXRβ; read-out: FL-M2H Gal4β potency): 32 nM

Cn1cccc(-c2c(-c3cccc(-c4ccc(C(=O)O)cc4Cl)c3)n(S(=O)(=O)c3ccc(C(F)F)cc3)c3ccc(F)cc23)c1=O [11/47]
EC50 [1, 2]: 100 to 1000 nM
EC50 (full length (FL) LXRα; [3]): 100 to 1000 nM
EC50 (full length (FL) LXRβ; [4]): 100 to 1000 nM

Cc1ccc(S(=O)(=O)n2c(-c3cccc(-c4cc(F)c(CO)c(S(C)(=O)=O)c4)c3)c(-c3ccsc3C#N)c3cc(F)ccc32)cc1 [2/16]
EC50 [1, 2]: < 100 nM
EC50 (full length (FL) LXRα; [3]): < 100 nM
EC50 (full length (FL) LXRβ; [4]): < 100 nM

N#Cc1sccc1-c1c(-c2cccc(-c3ccc(C(=O)NCCS(=O)(=O)O)cc3Cl)c2)n(S(=O)(=O)c2ccc(C(F)F)cc2)c2ccc(F)cc12 [10/3]
EC50 [1, 2]: < 100 nM
EC50 (full length (FL) LXRα; [3]): < 100 nM
EC50 (full length (FL) LXRβ; [4]): < 100 nM

COc1ccc(S(=O)(=O)n2c(-c3cccc(N4CC(C(=O)O)C4)c3)c(-c3ccsc3C#N)c3cc(F)ccc32)cc1 [3/33]
EC50 [1, 2]: 1000 to 10000 nM
EC50 (full length (FL) LXRα; [3]): 100 to 1000 nM
EC50 (full length (FL) LXRβ; [4]): < 100 nM

N#Cc1sccc1-c1c(-c2cccc(N3CC(C(=O)O)C3)c2)n(S(=O)(=O)c2ccc3c(c2)CCC3)c2ccc(F)cc12 [3/12]
EC50 [1, 2]: 100 to 1000 nM
EC50 (full length (FL) LXRα; [3]): < 100 nM
EC50 (full length (FL) LXRβ; [4]): < 100 nM

N#Cc1cccc(C#N)c1-c1c(-c2cccc(-c3ccc(S(=O)(=O)O)cc3Cl)c2)n(S(=O)(=O)c2ccc(C(F)F)cc2)c2ccc(F)cc12 [12/10]
EC50 [1, 2]: < 100 nM
EC50 (full length (FL) LXRα; [3]): < 100 nM
EC50 (full length (FL) LXRβ; [4]): < 100 nM

Cc1ccc(S(=O)(=O)n2c(-c3cccc(-c4ccc(C(C)(C)N)cc4Cl)c3)c(-c3ccsc3C#N)c3cc(F)ccc32)cc1 [2/2]
EC50 [1, 2]: 100 to 1000 nM
EC50 (full length (FL) LXRα; [3]): 100 to 1000 nM
EC50 (full length (FL) LXRβ; [4]): 100 to 1000 nM

Cc1ccc(S(=O)(=O)n2c(-c3cccc(N4CCC(C(=O)O)CC4)c3)c(-c3ccsc3C#N)c3cc(F)ccc32)cc1 [3/38]
EC50 [1, 2]: 100 to 1000 nM
EC50 (full length (FL) LXRα; [3]): < 100 nM
EC50 (full length (FL) LXRβ; [4]): < 100 nM
